Experimental data taken from patent US9067937B2 (priority 2012, dated 2015).
Structures can show the parent of a compound that is named as a salt.

Legend:
22Rv1 cells = assay: Cell-based assay, anti-proliferative activity (Cell Counting Kit-8, 72 hours); set-up: species or system human; conditions: Homo sapiens, 22Rv1, 72 h, read-out: IC50 (μM) (22Rvl)
Outline: (§1)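 Cells seeded at 2,000–3,000 cells/well and exposed to candidate MELK inhibitors for 72 hours; growth measured with Cell Counting Kit-8. IC50 values calculated from the growth read-out.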

DU4475 cells = assay: as above; set-up: species or system human; conditions: Homo sapiens, DU-4475, 72 h, read-out: IC50 (μM) (DU4475)
Outline: as §1

T47D cells = assay: as above; set-up: species or system human; conditions: Homo sapiens, T47D, 72 h, read-out: IC50 (μM) (T47D)
Outline: as §1

A549 cells = assay: as above; set-up: species or system human; conditions: Homo sapiens, A549, 72 h, read-out: IC50 (μM) (A549)
Outline: as §1

MELK = MELK (Homo sapiens, UniProt Q14680); assay: Kinase assay (IMAP fluorescence polarization, FITC-labeled histone H3 peptide); type: biochemical; conditions: 50 micro-M ATP
Chain of MELK (Q14680 whole entry, looked up): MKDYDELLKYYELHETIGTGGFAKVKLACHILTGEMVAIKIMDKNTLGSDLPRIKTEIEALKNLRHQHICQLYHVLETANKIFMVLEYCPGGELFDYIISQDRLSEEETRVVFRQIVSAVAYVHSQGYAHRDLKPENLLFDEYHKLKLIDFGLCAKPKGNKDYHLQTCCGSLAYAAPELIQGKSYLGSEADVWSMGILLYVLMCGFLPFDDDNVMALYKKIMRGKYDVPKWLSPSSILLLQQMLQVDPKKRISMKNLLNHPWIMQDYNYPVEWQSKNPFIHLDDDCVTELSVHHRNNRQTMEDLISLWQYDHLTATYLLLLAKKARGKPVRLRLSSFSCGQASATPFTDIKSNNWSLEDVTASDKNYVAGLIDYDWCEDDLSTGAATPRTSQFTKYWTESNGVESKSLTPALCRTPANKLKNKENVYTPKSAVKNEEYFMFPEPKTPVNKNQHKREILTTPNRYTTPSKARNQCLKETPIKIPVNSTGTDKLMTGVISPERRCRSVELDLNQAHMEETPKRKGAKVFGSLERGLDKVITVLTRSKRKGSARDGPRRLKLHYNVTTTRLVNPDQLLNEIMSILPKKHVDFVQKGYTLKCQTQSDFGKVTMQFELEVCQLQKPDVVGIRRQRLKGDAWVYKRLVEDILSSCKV
Outline: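 Kinase (0.8 ng/μL) reacted with 100 nM FITC-histone H3 peptide and 50 μM ATP in 20 mM HEPES, 0.3 mM MgCl2, 2 mM DTT, 0.01% Tween-20, pH 7.4, for 1 hour at room temperature. Phosphorylation read by IMAP fluorescence polarization after adding binding solution; IC50 from four-parameter fit.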

HT1197 cells = assay: Cell-based assay, anti-proliferative activity, MELK-negative control (Cell Counting Kit-8, 72 hours); set-up: species or system human; conditions: Homo sapiens, HT1197, 72 h, read-out: IC50 (μM) (HTll97)
Method: 100 micro-L of cell suspension was seeded onto 96-well microtiter plate (ViewPlate-96FTC, PerkinElmer). The initial cell concentration of 22Rv1, T47D, A549, DU4475, and HT1197 were 3,000 cells/well, 2,000 cells/well and 2,500 cells/well, respectively. Cellular growth was determined using Cell Counting Kit-8 (DOJINDO) at 72 hours after the exposure of the candidate inhibitors. […] Accurate IC50 values were calculated as described previously.

Row | Compound | IC50 (22Rv1 cells) [µM] | IC50 (DU4475 cells) [µM] | IC50 (T47D cells) [µM] | IC50 (A549 cells) [µM] | IC50 (MELK) [µM] | IC50 (HT1197 cells) [µM]
1 | CC(=O)c1cnc2ccc(N3CCC(O)C3)nc2c1N[C@H]1CC[C@H](CN2CCC(O)C2)CC1 (stereo partly drawn) [Example 77, 1-(6-(3-Hydroxypyrrolidin-1-yl)-4-{trans-4-[(3-hydroxypyrrolidin-1-yl)methyl]-cyclohexylamino}-1,5-naphthyridin-3-yl)ethanone] | 10 | 10 | 10 | 10 | 0.74 | 10
2 | CC(=O)c1cnc2ccc(N3CCCC3)nc2c1N[C@H]1CC[C@H](CN2CCCC2)CC1 [Example 78, 1-{6-(Pyrrolidin-1-yl)-4-[trans-4-(pyrrolidin-1-ylmethyl)cyclohexylamino]-1,5-naphthyridin-3-yl}ethanone] | 5.6 | 7.7 | 5.4 | 6.8 | 2 | 9.8
3 | CC(=O)c1cnc2ccc(-c3cc(Cl)c(O)c(Cl)c3)nc2c1N[C@H]1CC[C@H](NC(=O)C(N)C(C)C)CC1 (stereo partly drawn) [Example 79, N-{trans-4-[3-Acetyl-6-(3,5-dichloro-4-hydroxyphenyl)-1,5-naphthyridin-4-ylamino]-cyclohexyl}-2-amino-3-methylbutanamide dihydrochloride] | 0.038 | 0.016 | 0.018 | 0.11 | 0.0016 | 3.9
4 | CN(C)[C@H]1CC[C@H](Nc2c(C(=O)C3CC3)cnc3ccc(-c4cc(Cl)c(O)c(Cl)c4)nc23)CC1 [Example 80, Cyclopropyl {6-(3,5-dichloro-4-hydroxyphenyl)-4-[trans-4-(dimethylamino)-cyclohexylamino]-1,5-naphthyridin-3-yl}methanone dihydrochloride] | 0.0052 | 0.002 | 0.0041 | 0.0076 | 0.0006 | 0.084
5 | CC(=O)c1cnc2ccc(-c3cnc4[nH]ccc4c3)nc2c1N[C@H]1CC[C@H](CN(C)C)CC1 [Example 82, 1-(4-{trans-4-[(Dimethylamino)methyl]cyclohexylamino}-6-(1H-pyrrolo[2,3-b]pyridin-5-yl)-1,5-naphthyridin-3-yl)ethanone trihydrochloride] | 0.37 | 0.65 | 0.32 | 0.33 | 0.013 | 2.3
6 | N[C@H]1CCCN(c2ccc(Nc3c(C(=O)C4CC4)cnc4ccc(-c5cc(F)c(O)c(Cl)c5)nc34)cn2)C1 [Example 83, (S)-{4-[6-(3-Aminopiperidin-1-yl)pyridin-3-ylamino]-6-(3-chloro-5-fluoro-4-hydroxyphenyl)-1,5-naphthyridin-3-yl}(cyclopropyl)methanone] | 0.025 | 0.015 | 0.012 | 0.09 | 0.001 | 2.7
7 | COc1ccc(-c2ccc3ncc(C(C)=O)c(N[C@H]4CC[C@H](CN(C)C)CC4)c3n2)cc1 [Example 84, 1-(4-{trans-4-[(Dimethylamino)methyl]cyclohexylamino}-6-(4-methoxyphenyl)-1,5-naphthyridin-3-yl)ethanone dihydrochloride] | 0.58 | 5.2 | 0.25 | 2.4 | 0.031 | 6
8 | COc1c(Cl)cc(-c2ccc3ncc(C(C)=O)c(N[C@H]4CC[C@H](CN(C)C)CC4)c3n2)cc1Cl [Example 85, 1-[6-(3,5-Dichloro-4-methoxyphenyl)-4-{trans-4-[(dimethylamino)methyl]-cyclohexylamino}-1,5-naphthyridin-3-yl]ethanone dihydrochloride] | 0.77 | 2.3 | 0.43 | 2.3 | 0.12 | 6.5
9 | CC(=O)c1cnc2ccc(-c3ccc(O)nc3)nc2c1N[C@H]1CC[C@H](CN(C)C)CC1 [Example 86, 1-(4-{trans-4-[(Dimethylamino)methyl]cyclohexylamino}-6-(6-hydroxypyridin-3-yl)-1,5-naphthyridin-3-yl)ethanone dihydrochloride] | 5.3 | 6.5 | 6.2 | 8 | 0.011 | 10
10 | CC(=O)c1cnc2ccc(-c3ccc(C#N)nc3)nc2c1N[C@H]1CC[C@H](CN(C)C)CC1 [Example 87, 5-(7-Acetyl-8-{trans-4-[(dimethylamino)methyl]cyclohexylamino}-1,5-naphthyridin-2-yl)picolinonitrile dihydrochloride] | 0.66 | 0.74 | 0.66 | 1.8 | 0.0045 | 2
11 | CC(=O)c1cnc2ccc(-c3ccc(O)cc3)nc2c1N[C@H]1CC[C@H](CN(C)C)CC1 [Example 88, 1-(4-{trans-4-[(Dimethylamino)methyl]cyclohexylamino}-6-(4-hydroxyphenyl)-1,5-naphthyridin-3-yl)ethanone dihydrochloride] | 0.04 | 0.021 | 0.031 | 0.023 | 0.0045 | 0.039
12 | CC(=O)c1cnc2ccc(-c3cc(F)c(O)c(Cl)c3)nc2c1NC[C@H]1CC[C@H](N(C)C)CC1 [Example 90, 1-[6-(3-Chloro-5-fluoro-4-hydroxyphenyl)-4-{[trans-4-(dimethylamino)-cyclohexyl]methylamino}-1,5-naphthyridin-3-yl]ethanone dihydrochloride] | 0.052 | 0.027 | 0.03 | 0.12 | 0.0024 | 10
13 | CC(=O)c1cnc2ccc(-c3cc(F)c(O)c(Cl)c3)nc2c1N[C@H]1CC[C@@H](CN(C)C)CC1 [Example 93, 1-{6-(3-Chloro-5-fluoro-4-hydroxyphenyl)-4-({cis-4-[(dimethylamino)methyl]cyclohexyl}-amino)-1,5-naphthyridin-3-yl}ethanone dihydrochloride] | 0.032 | 0.011 | 0.02 | 0.039 | 0.0011 | 0.19
14 | CC(=O)c1cnc2ccc(-c3cc(Cl)c(O)c(Cl)c3)nc2c1Nc1ccc(N2CCC[C@@H](N)C2)nc1 [Example 95, (R)-1-{4-[6-(3-Aminopiperidin-1-yl)pyridin-3-ylamino]-6-(3,5-dichloro-4-hydroxyphenyl)-1,5-naphthyridin-3-yl}ethanone trihydrochloride] | 0.029 | 0.03 | 0.022 | 0.088 | 0.002 | 1.9
15 | CC(=O)c1cnc2ccc(-c3cc(F)c(O)c(Cl)c3)nc2c1Nc1ccc(N2CCC[C@@H](N)C2)nc1 [Example 96, (R)-1-{4-[6-(3-Aminopiperidin-1-yl)pyridin-3-ylamino]-6-(3-chloro-5-fluoro-4-hydroxyphenyl)-1,5-naphthyridin-3-yl}ethanone] | 0.026 | 0.024 | 0.018 | 0.035 | 0.0036 | 0.43
16 | N[C@@H]1CCCN(c2ccc(Nc3c(C(=O)C4CC4)cnc4ccc(-c5cc(Cl)c(O)c(Cl)c5)nc34)cn2)C1 [Example 201, (R)-(4-{[6-(3-aminopiperidin-1-yl)pyridin-3-yl]amino}-6-(3,5-dichloro-4-hydroxyphenyl)-1,5-naphthyridin-3-yl) (cyclopropyl)methanone] | 0.0061 | 0.003 | 0.0025 | 0.0061 | 0.00093 | 0.032
17 | N[C@@H]1CCCN(c2ccc(Nc3c(C(=O)C4CC4)cnc4ccc(-c5cc(F)c(O)c(Cl)c5)nc34)cn2)C1 [Example 202, (R)-(4-{[6-(3-aminopiperidin-1-yl)pyridin-3-yl]amino}-6-(3-chloro-5-fluoro-4-hydroxyphenyl)-1,5-naphthyridin-3-yl) (cyclopropyl) methanone] | 0.0044 | 0.001 | 0.0038 | 0.0054 | 0.00046 | 0.047
18 | CN(C)[C@H]1CC[C@H](Nc2c(C(=O)CO)cnc3ccc(-c4cc(Cl)c(O)c(Cl)c4)nc23)CC1 [Example 203, 1[6-(3,5-dichloro-4-hydroxyphenyl)-4-{[trans-4-(dimethylamino)cyclohexyl]amino}-1,5-naphthyridin-3-yl)-2-hydroxyethanone dihydrochloride] | 0.017 | 0.013 | 0.0093 | 0.034 | 0.0015 | 1.2
19 | CN(C)C[C@H]1CC[C@H](Nc2c(C(=O)CO)cnc3ccc(-c4cc(F)c(O)c(Cl)c4)nc23)CC1 [Example 204, 1-[6-(3-chloro-5-fluoro-4-hydroxyphenyl)-4-({trans-4-[(dimethylamino)methyl]cyclohexyl}amino)-1,5-naphthyridin-3-yl)]-2-hydroxyethanone dihydrochloride] | 0.02 | 0.013 | 0.014 | 0.058 | 0.0013 | 10
